Measured values from US20250249098A1, “CRYOPRESERVATION OF NK CELL PRODUCTS FOR OFF-THE-SHELF IMMUNOTHERAPY” (BOARD OF REGENTS, THE UNIVERSITY OF TEXAS SYSTEM, priority 2022, published 2025).

Legend:
[1] = tested on: SKOV3 cells and/or UMRC3 cells; test: xCELLigence impedance assay, thawed iC9/CD27 CAR/IL-15-NK cells; assay type: cell-based; details: pre-cryopreservation treatment at 1 micromolar; E:T 2:1; vs no pre-treatment
Method: The ovarian cancer cell line (SKOV3) (FIG. 16A) and renal cell carcinoma cell line (UMRC3) (FIG. 16B), were grown in 96 well RTCA E-Plates overnight.

U266 cells = test: Chromium release assay, thawed NYESO-TCR-NK cells; assay type: cell-based; details: pre-cryopreservation treatment; E:T 2:1, 1:1, 0.5:1, 0.25:1; vs no pre-treatment
Method: After four hours, chromium release was measured, which corresponded to cancer cell death.

CAR-NK cells [2] = test: Post-thaw viability of CAR-NK cells by flow cytometry (Annexin V / cell death marker); assay type: cell-based, human
Method: (§1) CAR-NK cells were isolated, pre-activated, expanded, and treated with Dasatinib for 24, 48, or 72 hours prior to cryopreservation as described in Example 1 (or not treated with Dasatinib as control). Immediately prior to cryopreservation, CAR-NK cells were washed to remove the deactivating agent.

[3] = tested on: A375 cells and/or Saos-2 cells; test: xCELLigence impedance assay, thawed NYESO-TCR-NK cells; details: pre-cryopreservation treatment at 1 micromolar; E:T 2:1; vs no pre-treatment
Method: As shown in FIGS. 17A-17C, addition of various tyrosine kinase inhibitors prior to freezing enhanced the antitumor cytotoxicity of TCR-NK cells post-thaw against solid cancer, as determined by xCELLigence impedance assays. The melanoma cell line (A375) (FIG. 17A) and osteosarcoma cell line (Saos-2) (FIG. 17B), were grown in 96 well RTCA E-Plates overnight. The next day, frozen NYESO targeting TCR-NK cells that were not treated or were treated pre-cryopreservation with a tyrosine kinase inhibitor (Dasatinib, Bosutinib, Nilotinib, or Saracatinib; at a final concentration of 1 micromolar) were thawed and added at 2:1 effector to target (E:T) ratio. The cancer cell growth was measured continuously over time (X axis) by the xCELLigence device and represented as normalized cell index (Y axis).

CAR-NK cells [4] = test: Post-thaw CAR expression of CAR-NK cells by flow cytometry; assay type: cell-based, human
Method: as §1

[5] = 24 h treatment prior to cryopreservation
[6] = 48 h treatment prior to cryopreservation

For `Cc1nc(Nc2ncc(C(=O)Nc3c(C)cccc3Cl)s2)cc(N2CCN(CCO)CC2)n1` [Dasatinib], the “cytotoxicity of thawed CAR-NK cells (normalized cell index)” value [1] was “increased cytotoxicity”, the “cytotoxicity of thawed TCR-NK cells (chromium release after four hours)” value (U266 cells) was “increased cytotoxicity” and the living cell percentage (CAR-NK cells [2]; [5]) was 61.7%. For the same compound, the living cell percentage (CAR-NK cells [2]; [6]) was 68.8%, the living cell percentage (CAR-NK cells [2]; 72 h treatment prior to cryopreservation) was 70.9% and the “cytotoxicity of thawed TCR-NK cells (normalized cell index)” value [3] was “increased cytotoxicity”. The “CAR Mean Fluorescence Intensity (MFI)” value (CAR-NK cells [4]; [5]) was 7987, the “percentage of cells that are CAR positive” value (CAR-NK cells [4]; [5]) was 64.9% and the “CAR Mean Fluorescence Intensity (MFI)” value (CAR-NK cells [4]; [6]) was 4620. The “percentage of cells that are CAR positive” value (CAR-NK cells [4]; [6]) was 55.4%.

With `COc1cc(Nc2c(C#N)cnc3cc(OCCCN4CCN(C)CC4)c(OC)cc23)c(Cl)cc1Cl` [Bosutinib] the “cytotoxicity of thawed TCR-NK cells (normalized cell index)” value [3] was “increased cytotoxicity”.

With `Cc1cn(-c2cc(NC(=O)c3ccc(C)c(Nc4nccc(-c5cccnc5)n4)c3)cc(C(F)(F)F)c2)cn1` [Nilotinib] the “cytotoxicity of thawed CAR-NK cells (normalized cell index)” value [1] was “increased cytotoxicity” and the “cytotoxicity of thawed TCR-NK cells (normalized cell index)” value [3] was “increased cytotoxicity”.

For `CN1CCN(CCOc2cc(OC3CCOCC3)c3c(Nc4c(Cl)ccc5c4OCO5)ncnc3c2)CC1` [Saracatinib], the “cytotoxicity of thawed CAR-NK cells (normalized cell index)” value [1] was “increased cytotoxicity”.
